Assay results from ChEMBL document CHEMBL1909294, “Translating clinical findings into knowledge in drug safety evaluation--drug induced liver injury prediction system (DILIps)” (PLoS Comput Biol, 2011).

What was measured:
[1] = test system: Hepatotoxicity;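 as to HepSE Combined Scores: combined hepatic side effect score as listed in the training data of the Drug Induced Liver Injury Prediction System (DILIps)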;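 as to HepSE cholecystitis: Cholecystitis-related hepatic side effect score drawn from the DILIps (drug-induced liver injury prediction) training data set; call rule not given here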; as to HepSE hepatic failure: call rule not given here;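 as to HepSE hepatomegaly: hepatic side effect score for hepatomegaly, taken from the training set of the DILIps drug-induced liver injury prediction system; call rule not given here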;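 as to HepSE jaundice: Jaundice-related hepatic side-effect score drawn from the training data of the DILIps (drug-induced liver injury prediction system); call rule not given here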;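 as to HepSE liver fatty: hepatic side effect score for fatty liver, taken from the DILIps training set for predicting drug-induced liver injury; call rule not given here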;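 as to HepSE liver function tests abnormal: hepatic side effect score taken from the DILIps (drug-induced liver injury prediction system) training data, here covering abnormal liver function test findings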
[2] = test system: Hepatotoxicity; remark: listed apart in the source;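 as to HepSE Combined Scores: combined hepatic side effect score as listed in the training data of the Drug Induced Liver Injury Prediction System (DILIps)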;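 as to HepSE cholecystitis: Cholecystitis-related hepatic side effect score drawn from the DILIps (drug-induced liver injury prediction) training data set; call rule not given here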; as to HepSE hepatic failure: call rule not given here;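 as to HepSE jaundice: Jaundice-related hepatic side-effect score drawn from the training data of the DILIps (drug-induced liver injury prediction system); call rule not given here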;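 as to HepSE liver fatty: hepatic side effect score for fatty liver, taken from the DILIps training set for predicting drug-induced liver injury; call rule not given here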;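 as to HepSE liver function tests abnormal: hepatic side effect score taken from the DILIps (drug-induced liver injury prediction system) training data, here covering abnormal liver function test findings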
[3] = test system: Hepatotoxicity; remark: listed apart in the source;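 as to HepSE Combined Scores: combined hepatic side effect score as listed in the training data of the Drug Induced Liver Injury Prediction System (DILIps)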;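 as to HepSE cholecystitis: Cholecystitis-related hepatic side effect score drawn from the DILIps (drug-induced liver injury prediction) training data set; call rule not given here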; as to HepSE hepatic failure: call rule not given here;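 as to HepSE jaundice: Jaundice-related hepatic side-effect score drawn from the training data of the DILIps (drug-induced liver injury prediction system); call rule not given here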;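 as to HepSE liver fatty: hepatic side effect score for fatty liver, taken from the DILIps training set for predicting drug-induced liver injury; call rule not given here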;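 as to HepSE liver function tests abnormal: hepatic side effect score taken from the DILIps (drug-induced liver injury prediction system) training data, here covering abnormal liver function test findings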
[4] = test system: Hepatotoxicity; remark: listed apart in the source;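 as to HepSE Combined Scores: combined hepatic side effect score as listed in the training data of the Drug Induced Liver Injury Prediction System (DILIps)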;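 as to HepSE cholecystitis: Cholecystitis-related hepatic side effect score drawn from the DILIps (drug-induced liver injury prediction) training data set; call rule not given here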; as to HepSE hepatic failure: call rule not given here;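 as to HepSE jaundice: Jaundice-related hepatic side-effect score drawn from the training data of the DILIps (drug-induced liver injury prediction system); call rule not given here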;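 as to HepSE liver fatty: hepatic side effect score for fatty liver, taken from the DILIps training set for predicting drug-induced liver injury; call rule not given here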;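 as to HepSE liver function tests abnormal: hepatic side effect score taken from the DILIps (drug-induced liver injury prediction system) training data, here covering abnormal liver function test findings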
[5] = test system: Hepatotoxicity; remark: listed apart in the source; as to HepSE hepatic failure: call rule not given here
[6] = test system: Hepatotoxicity; remark: listed apart in the source; as to HepSE hepatic failure: call rule not given here
[7] = test system: Hepatotoxicity; remark: listed apart in the source
[8] = test system: Hepatotoxicity; remark: listed apart in the source
[9] = test system: Hepatotoxicity; remark: listed apart in the source
[10] = test system: Hepatotoxicity; remark: listed apart in the source
[11] = test system: Hepatotoxicity; remark: listed apart in the source
[12] = test system: Hepatotoxicity; remark: listed apart in the source
[13] = test system: Hepatotoxicity; remark: listed apart in the source
[14] = test system: Hepatotoxicity; remark: listed apart in the source

| SMILES | HepSE_Combined Scores [1] | HepSE_cholecystitis [2] | HepSE_liver function tests abnormal [3] | HepSE_liver fatty [4] | HepSE_cholelithiasis [5] | HepSE_hepatic failure [6] | HepSE_jaundice [7] | HepSE_hepatomegaly [8] | HepSE_elevated liver function tests [9] | HepSE_cirrhosis [10] | HepSE_hepatic necrosis [11] | HepSE_liver disease [12] | HepSE_bilirubinemia [13] | HepSE_hepatitis [14] | further results |
| --- | --- | --- | --- | --- | --- | --- | --- | --- | --- | --- | --- | --- | --- | --- | --- |
| CN(C/C=C/C#CC(C)(C)C)Cc1cccc2ccccc12 [TERBINAFINE] | 3 | 0 | 0 | 0 | 0 | 1 | 1 | 0 | 0 | 0 | 0 | 1 | 0 | 0 |  |
| CC(C)(C)NCC(O)c1cc(O)cc(O)c1 (configuration not stated) [TERBUTALINE] | 0 | 0 | 0 | 0 | 0 | 0 | 0 | 0 | 0 | 0 | 0 | 0 | 0 | 0 |  |
| CC(C)N1CCN(c2ccc(OCC3COC(Cn4cncn4)(c4ccc(Cl)cc4Cl)O3)cc2)CC1 (configuration not stated) [TERCONAZOLE] | 0 | 0 | 0 | 0 | 0 | 0 | 0 | 0 | 0 | 0 | 0 | 0 | 0 | 0 |  |
| C[C@]12CC[C@H]3[C@@H](CCC4=CC(=O)CC[C@@]43C)[C@@H]1CC[C@@H]2O [TESTOSTERONE] | 2 | 0 | 1 | 0 | 0 | 0 | 1 | 0 | 0 | 0 | 0 | 0 | 0 | 0 |  |
| CN(C)[C@@H]1C(O)=C(C(N)=O)C(=O)[C@@]2(O)C(O)=C3C(=O)c4c(O)cccc4[C@@](C)(O)[C@H]3C[C@@H]12 [TETRACYCLINE] | 1 | 0 | 0 | 0 | 0 | 1 | 0 | 0 | 0 | 0 | 0 | 0 | 0 | 0 |  |
| c1ccc2c(c1)CCCC2C1=NCCN1 (configuration not stated) [TETRAHYDROZOLINE] | 0 | 0 | 0 | 0 | 0 | 0 | 0 | 0 | 0 | 0 | 0 | 0 | 0 | 0 |  |
| O=C1CCC(N2C(=O)c3ccccc3C2=O)C(=O)N1 (configuration not stated) [THALIDOMIDE] | 4 | 0 | 0 | 0 | 0 | 0 | 1 | 1 | 0 | 0 | 0 | 0 | 1 | 1 |  |
| Cn1c(=O)c2[nH]cnc2n(C)c1=O.O [THEOPHYLLINE] | 0 | 0 | 0 | 0 | 0 | 0 | 0 | 0 | 0 | 0 | 0 | 0 | 0 | 0 |  |
| c1ccc2[nH]c(-c3cscn3)nc2c1 [THIABENDAZOLE] | 2 | 0 | 0 | 0 | 0 | 1 | 1 | 0 | 0 | 0 | 0 | 0 | 0 | 0 |  |
| CSc1ccc2c(c1)N(CCC1CCCCN1C)c1ccccc1S2 (configuration not stated) [THIORIDAZINE] | 1 | 0 | 0 | 0 | 0 | 0 | 1 | 0 | 0 | 0 | 0 | 0 | 0 | 0 |  |
| S=P(N1CC1)(N1CC1)N1CC1 [THIOTEPA] | 1 | 0 | 0 | 0 | 0 | 0 | 0 | 0 | 0 | 0 | 0 | 0 | 1 | 0 |  |
| Cc1ccsc1C(=CCCN1CCC[C@@H](C(=O)O)C1)c1sccc1C [TIAGABINE] | 4 | 1 | 1 | 0 | 1 | 0 | 0 | 1 | 0 | 0 | 0 | 0 | 0 | 0 |  |
| Clc1ccccc1CN1CCc2sccc2C1 [TICLOPIDINE] |  |  |  |  |  |  |  |  |  |  |  |  |  |  | HepSE_Combined Scores ([1]; Liver): 4; HepSE_cholecystitis ([2]; Liver): 0; HepSE_liver function tests abnormal ([3]; Liver): 0; HepSE_liver fatty ([4]; Liver): 0; HepSE_cholelithiasis ([5]; Liver): 0; HepSE_hepatic failure ([6]; Liver): 1; HepSE_jaundice ([7]; Liver): 1; HepSE_hepatomegaly ([8]; Liver): 0; HepSE_elevated liver function tests ([9]; Liver): 0; HepSE_cirrhosis ([10]; Liver): 0; HepSE_hepatic necrosis ([11]; Liver): 1; HepSE_liver disease ([12]; Liver): 0; HepSE_bilirubinemia ([13]; Liver): 0; HepSE_hepatitis ([14]; Liver): 1 |
